Values quoted from earlier work, collected in patent US11628197B2, “Methods and compounds for treating effects of COVID-19 disease” (priority 2020, dated 2023).

How the values were obtained:
[1] = test system: COVID-19 disease; conditions: US Veterans Administration hospitals, France, China and Brazil
[2] = test system: COVID-19; conditions: study of 243 subjects

Compound | Therapeutic effects after clinical testing [1] | Efficacy for preventing intubation or death [2]
CCN(CC)CCCC(C)Nc1ccnc2cc(Cl)ccc12 (stereo not drawn) [chloroquine] | failed to produce desired therapeutic effects | –
CCN(CCO)CCCC(C)Nc1ccnc2cc(Cl)ccc12 (stereo not drawn) [hydroxycholoroquine] | failed to produce desired therapeutic effects | –
Tocilizumab: humanized monoclonal antibody targeting IL-6 receptors | – | failed to show efficacy
